# From publication PMC5791972 (PLoS ONE, 2018)
# Several values for one entry are separate records, joined by “and”; a condition that tells them apart may be missing. Equal entries are not always repeated. Starred links: 1 amine or outer side, 2 acyl side, 3 side chain; linkers in the order of their positions; H or OH if unused. Positions of bridges follow the written chain, without caps; N, C: chain ends. Residues, ends and D or L forms follow the SMILES beside them. X1 = O=C(CC1(S[*:2])CCCCC1)[*:1]
# Assays:
# D2S (h) = D2S (h) (Homo sapiens, UniProt P14416)
# [1] = target: Ca2+ channel (L, diltiazem site) (benzothiazepines) (Rattus norvegicus, UniProt P22002); format: binding
# Ca2+ channel (N) = Ca2+ channel (N) (Rattus norvegicus, UniProt Q02294); test: biochemical; format: binding
# Sequence of Ca2+ channel (N) (Q02294 whole entry): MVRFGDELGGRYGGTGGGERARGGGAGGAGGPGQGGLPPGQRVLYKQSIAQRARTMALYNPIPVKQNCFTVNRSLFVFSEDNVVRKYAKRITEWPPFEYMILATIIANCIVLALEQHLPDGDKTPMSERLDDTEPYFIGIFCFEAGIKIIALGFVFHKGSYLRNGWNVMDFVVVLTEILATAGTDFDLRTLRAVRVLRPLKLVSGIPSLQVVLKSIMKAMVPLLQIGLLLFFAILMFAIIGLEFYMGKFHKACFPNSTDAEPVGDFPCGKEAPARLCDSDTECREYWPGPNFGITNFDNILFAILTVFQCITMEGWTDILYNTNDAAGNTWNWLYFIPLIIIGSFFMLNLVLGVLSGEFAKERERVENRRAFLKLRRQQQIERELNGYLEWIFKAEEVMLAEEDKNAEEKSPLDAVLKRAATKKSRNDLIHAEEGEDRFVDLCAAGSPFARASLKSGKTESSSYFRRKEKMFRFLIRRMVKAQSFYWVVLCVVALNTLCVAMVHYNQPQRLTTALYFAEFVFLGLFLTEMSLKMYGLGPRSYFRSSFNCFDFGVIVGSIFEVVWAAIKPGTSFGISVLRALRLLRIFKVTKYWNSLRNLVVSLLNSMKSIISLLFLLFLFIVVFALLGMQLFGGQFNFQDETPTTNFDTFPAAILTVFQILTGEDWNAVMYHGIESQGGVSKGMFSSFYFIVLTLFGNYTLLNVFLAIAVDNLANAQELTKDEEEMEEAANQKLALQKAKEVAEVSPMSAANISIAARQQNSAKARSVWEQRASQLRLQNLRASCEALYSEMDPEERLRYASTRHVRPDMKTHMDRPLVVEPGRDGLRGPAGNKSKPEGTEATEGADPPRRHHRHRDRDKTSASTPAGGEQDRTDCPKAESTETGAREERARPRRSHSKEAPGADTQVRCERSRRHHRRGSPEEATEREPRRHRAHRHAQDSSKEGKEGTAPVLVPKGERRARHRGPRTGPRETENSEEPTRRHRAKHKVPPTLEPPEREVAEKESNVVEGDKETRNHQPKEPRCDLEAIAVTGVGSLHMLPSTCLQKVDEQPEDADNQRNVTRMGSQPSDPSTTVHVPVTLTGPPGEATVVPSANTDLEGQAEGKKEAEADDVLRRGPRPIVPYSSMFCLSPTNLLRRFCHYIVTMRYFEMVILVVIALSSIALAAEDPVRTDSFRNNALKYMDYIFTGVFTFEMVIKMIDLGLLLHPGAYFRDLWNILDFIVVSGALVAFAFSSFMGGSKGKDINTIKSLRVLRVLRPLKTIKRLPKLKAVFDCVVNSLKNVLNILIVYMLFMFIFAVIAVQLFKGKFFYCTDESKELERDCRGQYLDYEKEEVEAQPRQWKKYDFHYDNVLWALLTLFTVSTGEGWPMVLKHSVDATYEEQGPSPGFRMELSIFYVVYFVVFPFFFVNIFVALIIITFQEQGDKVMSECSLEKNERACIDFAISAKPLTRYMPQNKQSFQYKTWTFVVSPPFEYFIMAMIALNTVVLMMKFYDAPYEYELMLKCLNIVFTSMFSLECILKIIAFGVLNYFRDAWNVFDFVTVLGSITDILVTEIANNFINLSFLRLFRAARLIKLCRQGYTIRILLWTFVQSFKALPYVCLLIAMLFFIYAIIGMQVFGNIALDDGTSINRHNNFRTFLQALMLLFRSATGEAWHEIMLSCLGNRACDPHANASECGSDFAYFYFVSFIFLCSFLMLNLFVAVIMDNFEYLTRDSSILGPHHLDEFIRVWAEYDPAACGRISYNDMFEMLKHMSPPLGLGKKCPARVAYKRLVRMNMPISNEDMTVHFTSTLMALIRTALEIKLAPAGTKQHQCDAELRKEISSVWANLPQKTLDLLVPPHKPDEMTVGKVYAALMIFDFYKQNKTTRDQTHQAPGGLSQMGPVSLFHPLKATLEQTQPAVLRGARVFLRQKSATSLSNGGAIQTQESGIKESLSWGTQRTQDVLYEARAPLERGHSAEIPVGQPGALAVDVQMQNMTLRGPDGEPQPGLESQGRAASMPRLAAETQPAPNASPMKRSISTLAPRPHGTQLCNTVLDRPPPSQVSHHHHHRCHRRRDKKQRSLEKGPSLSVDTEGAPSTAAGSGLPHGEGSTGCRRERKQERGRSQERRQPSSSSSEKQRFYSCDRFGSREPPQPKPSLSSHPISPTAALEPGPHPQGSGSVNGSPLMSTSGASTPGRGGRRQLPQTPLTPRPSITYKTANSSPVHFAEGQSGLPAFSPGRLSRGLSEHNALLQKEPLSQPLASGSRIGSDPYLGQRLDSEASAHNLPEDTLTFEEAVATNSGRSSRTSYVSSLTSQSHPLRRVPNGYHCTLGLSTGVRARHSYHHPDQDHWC
# Sequence of Ca2+ channel (N) (P54290 25-944 partner limits assumed): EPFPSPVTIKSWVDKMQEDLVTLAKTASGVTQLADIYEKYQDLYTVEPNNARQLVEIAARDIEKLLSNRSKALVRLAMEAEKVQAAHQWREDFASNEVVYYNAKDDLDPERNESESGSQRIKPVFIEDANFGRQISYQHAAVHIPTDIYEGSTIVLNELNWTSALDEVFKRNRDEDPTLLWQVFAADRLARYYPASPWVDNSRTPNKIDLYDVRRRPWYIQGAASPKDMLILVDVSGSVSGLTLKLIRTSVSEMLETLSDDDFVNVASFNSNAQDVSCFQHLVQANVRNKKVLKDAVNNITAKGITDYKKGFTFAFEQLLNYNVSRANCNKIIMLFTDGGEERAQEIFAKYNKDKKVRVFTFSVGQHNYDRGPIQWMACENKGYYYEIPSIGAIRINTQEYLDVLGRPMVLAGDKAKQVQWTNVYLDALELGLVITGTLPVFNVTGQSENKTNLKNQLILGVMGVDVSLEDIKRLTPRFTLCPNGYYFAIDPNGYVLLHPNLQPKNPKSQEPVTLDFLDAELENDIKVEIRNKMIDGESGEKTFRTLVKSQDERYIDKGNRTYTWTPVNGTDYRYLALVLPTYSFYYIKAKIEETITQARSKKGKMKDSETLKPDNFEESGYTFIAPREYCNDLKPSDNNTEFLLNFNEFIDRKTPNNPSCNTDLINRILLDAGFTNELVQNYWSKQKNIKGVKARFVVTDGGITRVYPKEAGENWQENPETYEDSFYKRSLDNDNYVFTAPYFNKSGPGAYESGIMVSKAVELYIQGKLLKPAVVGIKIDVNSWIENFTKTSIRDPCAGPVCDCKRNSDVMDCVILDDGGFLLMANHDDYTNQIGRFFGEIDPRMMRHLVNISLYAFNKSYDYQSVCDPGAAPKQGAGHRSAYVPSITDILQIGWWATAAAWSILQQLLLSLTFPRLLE
# Sequence of Ca2+ channel (N) (P54290 945-1091 partner limits assumed): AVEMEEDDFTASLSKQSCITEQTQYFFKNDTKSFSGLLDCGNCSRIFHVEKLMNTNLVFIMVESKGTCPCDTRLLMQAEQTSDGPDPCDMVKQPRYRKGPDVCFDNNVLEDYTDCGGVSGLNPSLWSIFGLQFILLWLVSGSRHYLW
# Sequence of Ca2+ channel (N) (P54287 whole entry partner): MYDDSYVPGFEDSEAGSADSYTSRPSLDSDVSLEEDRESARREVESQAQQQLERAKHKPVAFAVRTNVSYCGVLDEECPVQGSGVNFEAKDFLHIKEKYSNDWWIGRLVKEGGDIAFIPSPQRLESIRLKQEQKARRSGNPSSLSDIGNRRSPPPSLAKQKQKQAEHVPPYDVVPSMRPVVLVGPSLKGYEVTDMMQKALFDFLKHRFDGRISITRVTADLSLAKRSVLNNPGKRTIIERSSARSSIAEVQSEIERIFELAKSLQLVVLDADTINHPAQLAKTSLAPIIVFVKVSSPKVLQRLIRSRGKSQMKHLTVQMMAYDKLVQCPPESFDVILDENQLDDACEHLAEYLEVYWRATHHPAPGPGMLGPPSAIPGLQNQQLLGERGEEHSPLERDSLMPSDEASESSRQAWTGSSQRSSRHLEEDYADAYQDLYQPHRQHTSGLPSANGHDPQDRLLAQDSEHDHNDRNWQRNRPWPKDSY
# 5-HT transporter (h) = target: T1, 5-HT transporter (h) (Homo sapiens, UniProt P31645); format: binding
# T1 construct: host or cells: CHO cells
# T1 sequence (P31645 whole entry): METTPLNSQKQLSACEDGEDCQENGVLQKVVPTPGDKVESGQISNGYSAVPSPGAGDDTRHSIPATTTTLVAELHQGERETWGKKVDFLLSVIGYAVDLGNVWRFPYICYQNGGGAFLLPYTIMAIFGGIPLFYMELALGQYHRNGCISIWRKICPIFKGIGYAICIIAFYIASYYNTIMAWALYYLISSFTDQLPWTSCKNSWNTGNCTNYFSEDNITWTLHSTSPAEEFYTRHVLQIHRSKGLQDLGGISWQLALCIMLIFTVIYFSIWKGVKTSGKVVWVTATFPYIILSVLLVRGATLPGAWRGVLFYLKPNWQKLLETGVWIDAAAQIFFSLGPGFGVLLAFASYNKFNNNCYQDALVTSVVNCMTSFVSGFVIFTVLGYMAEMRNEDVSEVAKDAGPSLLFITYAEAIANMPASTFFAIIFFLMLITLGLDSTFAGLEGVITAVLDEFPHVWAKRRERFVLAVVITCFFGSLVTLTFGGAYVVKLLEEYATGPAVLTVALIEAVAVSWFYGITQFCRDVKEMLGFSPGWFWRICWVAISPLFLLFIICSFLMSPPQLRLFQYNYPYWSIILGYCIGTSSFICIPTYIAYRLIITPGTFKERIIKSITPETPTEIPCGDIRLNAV
# CD-1 mice = test: Forced swim test; conditions: 20 mg/kg IP, 45 min prior, CD-1 mice
# p38α kinase (h) = p38α kinase (h) (Homo sapiens, UniProt Q16539); test: enzyme assay; format: biochemical
# M2 (h) = target: T2, M2 (h) (Homo sapiens, UniProt P08172)
# T2 sequence (P08172 1-466): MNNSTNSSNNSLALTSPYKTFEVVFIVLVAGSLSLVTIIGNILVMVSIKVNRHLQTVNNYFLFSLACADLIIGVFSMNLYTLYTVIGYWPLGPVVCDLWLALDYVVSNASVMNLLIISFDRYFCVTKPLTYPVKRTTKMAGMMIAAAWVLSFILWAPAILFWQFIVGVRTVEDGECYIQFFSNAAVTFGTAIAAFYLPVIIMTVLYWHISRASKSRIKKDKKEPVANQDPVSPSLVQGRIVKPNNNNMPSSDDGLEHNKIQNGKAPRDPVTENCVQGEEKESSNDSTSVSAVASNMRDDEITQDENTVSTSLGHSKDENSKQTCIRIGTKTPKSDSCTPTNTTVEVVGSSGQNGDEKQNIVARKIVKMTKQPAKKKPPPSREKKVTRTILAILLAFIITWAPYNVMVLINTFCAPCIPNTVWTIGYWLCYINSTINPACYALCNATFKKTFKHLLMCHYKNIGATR
# 5-HT3 (h) = target: T3, 5-HT3 (h) (Homo sapiens, UniProt P46098)
# T3 sequence (P46098 24-478): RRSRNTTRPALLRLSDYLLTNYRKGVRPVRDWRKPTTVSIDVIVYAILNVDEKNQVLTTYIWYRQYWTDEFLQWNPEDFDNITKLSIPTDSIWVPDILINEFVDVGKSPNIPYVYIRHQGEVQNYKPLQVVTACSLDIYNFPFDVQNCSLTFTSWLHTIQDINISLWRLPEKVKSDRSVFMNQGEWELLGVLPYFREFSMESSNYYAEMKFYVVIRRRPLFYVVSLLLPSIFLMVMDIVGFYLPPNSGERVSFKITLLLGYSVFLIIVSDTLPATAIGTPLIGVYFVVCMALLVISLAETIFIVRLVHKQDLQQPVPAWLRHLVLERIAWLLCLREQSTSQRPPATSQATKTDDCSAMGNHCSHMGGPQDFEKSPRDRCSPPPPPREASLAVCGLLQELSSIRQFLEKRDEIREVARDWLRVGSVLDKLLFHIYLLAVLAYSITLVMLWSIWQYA
# GABAB(1b) (h) = GABAB(1b) (h) (Homo sapiens, UniProt Q9UBS5)
# M3 (h) = M3 (h) (Homo sapiens, UniProt P20309)
# M5 (h) = target: T4, M5 (h) (Homo sapiens, UniProt P08912); format: binding
# T4 construct: host or cells: CHO cells
# T4 sequence (P08912 1-532): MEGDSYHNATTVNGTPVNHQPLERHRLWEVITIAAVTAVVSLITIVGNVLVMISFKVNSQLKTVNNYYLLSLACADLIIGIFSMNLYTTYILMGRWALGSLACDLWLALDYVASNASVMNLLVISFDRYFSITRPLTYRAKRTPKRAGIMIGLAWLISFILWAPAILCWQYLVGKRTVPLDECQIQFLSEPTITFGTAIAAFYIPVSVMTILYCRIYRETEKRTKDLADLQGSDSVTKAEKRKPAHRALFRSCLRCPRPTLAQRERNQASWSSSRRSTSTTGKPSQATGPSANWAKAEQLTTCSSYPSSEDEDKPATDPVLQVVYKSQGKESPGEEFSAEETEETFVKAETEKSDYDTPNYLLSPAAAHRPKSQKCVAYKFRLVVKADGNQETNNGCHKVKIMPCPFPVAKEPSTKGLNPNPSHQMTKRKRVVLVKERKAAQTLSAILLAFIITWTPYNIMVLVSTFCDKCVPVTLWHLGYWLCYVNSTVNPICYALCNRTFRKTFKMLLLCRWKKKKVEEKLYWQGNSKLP
# M4 (h) = target: T5, M4 (h) (Homo sapiens, UniProt P08173)
# T5 sequence (P08173 1-479): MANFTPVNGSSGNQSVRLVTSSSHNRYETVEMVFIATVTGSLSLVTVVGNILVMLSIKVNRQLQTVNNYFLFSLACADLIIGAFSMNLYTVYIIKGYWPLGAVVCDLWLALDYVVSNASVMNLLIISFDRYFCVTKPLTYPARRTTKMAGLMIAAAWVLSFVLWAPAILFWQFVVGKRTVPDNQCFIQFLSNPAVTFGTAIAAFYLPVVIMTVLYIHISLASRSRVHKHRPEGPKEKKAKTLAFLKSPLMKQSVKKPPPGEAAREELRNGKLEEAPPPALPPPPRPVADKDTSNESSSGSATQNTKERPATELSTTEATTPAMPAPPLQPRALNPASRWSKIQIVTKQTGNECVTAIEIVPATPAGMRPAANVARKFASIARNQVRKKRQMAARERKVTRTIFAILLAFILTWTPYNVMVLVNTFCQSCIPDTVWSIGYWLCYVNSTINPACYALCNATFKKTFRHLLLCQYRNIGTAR
# 5-HT2A (h) = target: T6, 5-HT2A (h) (Homo sapiens, UniProt P28223); format: binding
# T6 construct: host or cells: HEK-293 cells
# T6 sequence (P28223 whole entry): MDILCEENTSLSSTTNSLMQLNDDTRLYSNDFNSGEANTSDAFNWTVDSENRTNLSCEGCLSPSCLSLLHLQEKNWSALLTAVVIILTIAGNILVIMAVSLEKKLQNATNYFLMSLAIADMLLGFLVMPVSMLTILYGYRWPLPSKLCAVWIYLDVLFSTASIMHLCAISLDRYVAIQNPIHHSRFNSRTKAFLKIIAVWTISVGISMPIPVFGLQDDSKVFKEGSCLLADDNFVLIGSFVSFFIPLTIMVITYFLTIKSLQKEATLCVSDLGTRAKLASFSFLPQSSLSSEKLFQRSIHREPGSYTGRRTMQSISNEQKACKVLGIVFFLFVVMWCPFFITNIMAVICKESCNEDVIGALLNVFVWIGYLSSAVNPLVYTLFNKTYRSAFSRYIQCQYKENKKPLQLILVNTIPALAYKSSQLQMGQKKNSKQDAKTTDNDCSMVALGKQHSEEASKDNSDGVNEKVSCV
# [2] = target: T7, FLT-1 kinase (h) (VEGFR1) (Homo sapiens, UniProt P17948); test: enzyme assay; format: biochemical
# T7 construct: host or cells: Sf9 cells
# ZAP70 kinase (h) = target: T8, ZAP70 kinase (h) (Homo sapiens, UniProt P43403); test: biochemical
# T8 construct: host or cells: insect cells
# T8 sequence (P43403 1-619): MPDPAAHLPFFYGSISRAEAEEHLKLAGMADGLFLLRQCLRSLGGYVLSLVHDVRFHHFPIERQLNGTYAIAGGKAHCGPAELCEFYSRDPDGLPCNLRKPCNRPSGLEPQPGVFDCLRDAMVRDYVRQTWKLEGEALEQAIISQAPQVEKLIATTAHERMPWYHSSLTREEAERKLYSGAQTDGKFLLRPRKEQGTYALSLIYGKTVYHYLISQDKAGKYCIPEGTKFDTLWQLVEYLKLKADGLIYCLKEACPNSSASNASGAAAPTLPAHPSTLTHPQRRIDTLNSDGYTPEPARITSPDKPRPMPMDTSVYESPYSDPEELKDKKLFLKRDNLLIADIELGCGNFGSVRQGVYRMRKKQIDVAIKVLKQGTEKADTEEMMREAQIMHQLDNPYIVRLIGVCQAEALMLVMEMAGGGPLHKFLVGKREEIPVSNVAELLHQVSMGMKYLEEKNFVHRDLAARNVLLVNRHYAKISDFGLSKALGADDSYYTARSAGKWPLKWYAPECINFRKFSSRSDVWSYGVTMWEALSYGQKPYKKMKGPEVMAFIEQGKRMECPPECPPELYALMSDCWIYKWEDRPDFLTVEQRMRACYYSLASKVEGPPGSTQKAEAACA
# PDE3A (h) = PDE3A (h) (Homo sapiens, UniProt Q14432); test: biochemical
# NMRI mice = test: Locomotor activity; format: in vivo, mouse; conditions: 5 mg/kg subcutaneously
# Description: NMRI mice were habituated to their room for at least 2 weeks after the delivery and kept under standard conditions in groups of 4–5 animals per cage. Food and water were available ad libitum.
# Spontaneous motility and rearing were measured by an automated system (Coulbourn Instruments, USA). Animals were introduced into transparent square cages (40 cm length) that are equipped with 2 light barrier systems in order to monitor the movements as well as rearing behavior automatically. The movements of the animals were recorded for 30 minutes. At the end of the experiment, the animals were sacrificed via isofluorane inhalation and subsequent decapitation.
# MMP-9 (h) = MMP-9 (h) (Homo sapiens, UniProt P14780); test: biochemical; format: biochemical
# PDE5 (h) (non-selective) = PDE5 (h) (non-selective) (Homo sapiens, UniProt O76074)
# V1a (h) = target: T9, V1a (h) (Homo sapiens, UniProt P37288); format: binding
# T9 construct: host or cells: CHO cells
# ATPase (Na+/K+) = test: enzyme assay; format: biochemical, porcine
# GR (h) = target: T10, GR (h) (Homo sapiens, UniProt P04150); format: binding
# T10 construct: IM-9 cells; host or cells: IM-9 cells (cytosol)
compound,measurement,setting,value
(+)butaclamol,nH,D2S (h),1.1
"COc1ccc([C@@H]2Sc3ccccc3N(CCN(C)C)C(=O)[C@@H]2OC(C)=O)cc1 [diltiazem, reference compound]",nH,[1],1.2
"C[C@@H](O)[C@@H]1NC(=O)[C@H](Cc2ccc(O)cc2)NC(=O)[C@@H]2C[C@@H](O)CN2C(=O)[C@H](CC(N)=O)NC(=O)[C@@H]2CSSC[C@@H]3NC(=O)[C@H](CO)NC(=O)[C@H](CO)NC(=O)CNC(=O)[C@@H]4C[C@@H](O)CN4C(=O)[C@H](CO)NC(=O)[C@H](CCCCN)NC(=O)[C@@H](N)CSSC[C@H](NC(=O)[C@H](CSSC[C@@H](C(=O)N[C@@H](Cc4ccc(O)cc4)C(N)=O)NC(=O)[C@H](CCCN=C(N)N)NC(=O)[C@H](CCCCN)NC1=O)NC(=O)[C@H](CC(N)=O)NC(=O)[C@H](Cc1ccc(O)cc1)NC(=O)[C@H](CO)NC(=O)[C@H]([C@@H](C)O)NC(=O)[C@@H]1C[C@@H](O)CN1C(=O)[C@H](CO)NC3=O)C(=O)N[C@@H](CCCN=C(N)N)C(=O)N[C@@H](CO)C(=O)N2 [ω-conotoxin GVIA, reference compound]",IC50,Ca2+ channel (N),1.2 pM
"CN(C)CCCN1c2ccccc2CCc2ccccc21 [imipramine, reference compound]",nH,5-HT transporter (h),0.9
same,immobility time,CD-1 mice,decreased immobility time
"Oc1ccc(-c2nc(-c3ccncc3)c(-c3ccc(F)cc3)[nH]2)cc1 [SB202190, reference compound]",nH,p38α kinase (h),1.4
COc1ccccc1CNCCCCCCNCCCCCCCCNCCCCCCNCc1ccccc1OC [methoctramine],nH,M2 (h),0.9
CN1[C@@H]2CC[C@H]1C[C@@H](OC(=O)c1cc(Cl)cc(Cl)c1)C2 [MDL 72222],nH,5-HT3 (h),1.1
C[C@H](NC[C@H](O)CP(=O)(O)CC1CCCCC1)c1ccc(Cl)c(Cl)c1 [CGP 54626],nH,GABAB(1b) (h),0.9
"C[N+]1(C)CCC(OC(=O)C(c2ccccc2)c2ccccc2)CC1.[I-] [4-DAMP, reference compound]",nH,M3 (h),1.2
same,IC50,M5 (h),0.76 nM and 0.45 nM
same,Ki,M5 (h),0.38 nM and 0.22 nM
same,nH,M5 (h),0.8
same,nH,M4 (h),0.8
"O=C(c1ccc(F)cc1)C1CCN(CCn2c(=O)[nH]c3ccccc3c2=O)CC1 [ketanserin, reference compound]",nH,5-HT2A (h),1.4
"CN[C@@H]1C[C@H]2O[C@@](C)([C@@H]1OC)n1c3ccccc3c3c4c(c5c6ccccc6n2c5c31)C(=O)NC4 [staurosporine, reference compound]",nH,[2],1.4
same,nH,ZAP70 kinase (h),1.2
"Cc1[nH]c(=O)c(C#N)cc1-c1ccncc1 [milrinone, reference compound]",nH,PDE3A (h),1.0
"c1ccc(C2(N3CCCCC3)CCCCC2)cc1 [PCP, Phencyclidine, reference compound]",locomotor activity,NMRI mice,substantially increased activity
"CNC(=O)[C@H](Cc1c[nH]c2ccccc12)NC(=O)[C@@H](CC(=O)NO)CC(C)C [GM6001, reference compound]",nH,MMP-9 (h),1.6
OCCN(CCO)c1nc(N2CCCCC2)c2nc(N(CCO)CCO)nc(N3CCCCC3)c2n1 [dipyridamole],nH,PDE5 (h) (non-selective),1.7 and 1.0
"COc1ccc(C[C@@H]2NC(=O)CC3(CCCCC3)SSC[C@@H](C(=O)N3CCC[C@H]3C(=O)N[C@@H](CCCNC(=N)N)C(=O)NCC(N)=O)NC(=O)[C@H](CC(N)=O)NC(=O)[C@H](CCC(N)=O)NC(=O)[C@H](Cc3ccccc3)NC2=O)cc1 [[d(CH2)51,Tyr(Me)2]-AVP, reference compound] (Y(Me)FQNCPRG-NH2; linker N-5 via X1 (inferred))",nH,V1a (h),0.9
"C[C@@H]1O[C@@H](O[C@H]2C[C@@H](O)[C@]3(CO)[C@H]4[C@H](O)C[C@]5(C)[C@@H](C6=CC(=O)OC6)CC[C@]5(O)[C@@H]4CC[C@]3(O)C2)[C@H](O)[C@H](O)[C@H]1O [ouabain, reference compound]",IC50,ATPase (Na+/K+),1200 nM
C[C@@H]1C[C@H]2[C@@H]3CCC4=CC(=O)C=C[C@]4(C)[C@@]3(F)[C@@H](O)C[C@]2(C)[C@@]1(O)C(=O)CO [dexamethasone],nH,GR (h),1.1
